Data as given in patent publication EP4667486A1, “COMPOSITION COMPRISING CD38 OR FRAGMENT THEREOF FOR TREATING AUTOIMMUNE DISEASES” (DNT Co., Ltd., priority 2023, dated 2024).

Legend:
[1] = tested on: DCs; experiment: LPS-induced TNF-α secretion from bone marrow-derived dendritic cells (ELISA), sCD38 functional domain screening; assay type: cell-based, mouse; settings: DCs from bone marrow cells treated with GM-CSF, FIG. 1-3
Protocol: To isolate bone marrow cells, mice (Damool Science, Korea) were anesthetized and sacrificed, and the femur and tibia were removed aseptically and the tissue attached to the bones was removed. After cutting off both ends of the bones, bone marrow was collected by slowly injecting 5-10 mL of a cell culture medium or a solution used for bone marrow separation into the medullary cavity at one end using a syringe needle, which was then filtered through a 70 µm cell strainer (SPL Life Sciences, Korea) and centrifuged to collect bone marrow cells. After treating with 1 mL of an RBC lysis solution (Merck, Germany) for 2-5 minutes to remove red blood cells, 10 mL of Dulbecco's phosphate-buffered saline (DPBS) (GIBCO, USA) was added, and bone marrow cells were collected through centrifugation. After washing the bone marrow cells 3 times with DPBS, 10 mL of a BMDC culture medium (RPMI-1640 (Welgene, Korea) containing 10% FBS (GIBCO, USA) and 10 ng/mL GM-CSF (Peprotech, USA)) was added to disperse the bone marrow cells into single cells. 1×10^5 bone marrow cells were dispensed into a 24-well culture dish and differentiated in a 37 °C incubator maintained at 5% CO2.
To screen the functional domain of sCD38 that induces dendritic cell tolerance, the domain of sCD38 was largely divided into three parts (CD38 amino acid sequence; 42-140 (1), 130-220 (2), 210-304 (3)). Using the three parts of sCD38, TNF-α secretion was observed as one of the indicators of the degree of DC tolerance induction.
An E. coli expression system was used to express the sCD38 domain protein. The sCD38 domain protein expressed in E. coli was purified using a purification system and used for screening. For fast and easy screening of the domain protein of sCD38, an ELISA method that measures the pro-inflammatory cytokine TNF-α was adopted. When the DCs obtained by treating the bone marrow cells with GM-CSF are treated with LPS, the DCs differentiate into mature DCs and the secretion of TNF-α is increased. It was confirmed that TNF-α secretion from DCs induced by LPS was reduced by the treatment with sCD38 (SEQ ID NO: 33). As a result of treating with sCD38 functional domain, (1) 42-140, (2) 130-220, and (3) 210-304, it was confirmed that the TNF-α secretion from dendritic cells induced by LPS (Merck, Germany) was reduced by the sCD38 functional domain (3).
After the first screening of the sCE38 functional domain that induces dendritic cell tolerance, the selected domain was divided into two parts (C-term 226-265 and C-term 266-304 of CD38 210-304 (3), (SEQ ID NO: 26)). After the domain was divided into two parts, TNF-α secretion was observed as one of the indicators of the degree of DC tolerance induction.
An E. coli expression system was used to express the divided two parts of sCD38. As a result of treating with the divided two parts (C-term 226-265, C-term 266-304) of the sCD38 functional domain (3), it was confirmed that the TNF-α secretion from dendritic cells induced by LPS was reduced by the sCD38 functional domain C-term 266-304.
After the second screening of the sCE38 functional domains that induce dendritic cell tolerance, the screened domain was divided into seven parts and peptide synthesis was performed (peptide 1: 233-247 of sCD38 226-304, peptide 2: 251-265, peptide 3: 269-283, peptide 4: 266-304 (SEQ ID NO: 26), peptide 5 (M19): 286-304 (SEQ ID NO: 21), peptide 6 (M16): 287-302 (SEQ ID NO: 11), peptide 7 (M14): 287-300 (SEQ ID NO: 4)). […]

[2] = tested on: human dendritic cells; experiment: LPS-induced TNF-α secretion from human monocyte-derived dendritic cells; assay type: cell-based; settings: FIG. 9
Protocol: To isolate human monocytes, 20 mL of whole blood was withdrawn and mix with an equal volume of PBS. After adding 15 mL of Ficoll (GE HealthCare, USA) to a 50-mL tube, 15 mL of diluted whole blood was slowly added onto the Ficoll. Likewise, an equal amount of the remaining whole blood was dispensed slowly into a 50-mL tube containing 15 mL of Ficoll. Centrifugation was performed at 1000 x g for 20 minutes in a centrifuge at room temperature. After carefully removing plasma from the isolated whole blood, a portion including peripheral blood mononuclear cells (PBMCs) was transferred to a new 50-mL tube. After adding 10 mL of PBS to the tube containing PBMCs and mixing gently, centrifugation was performed at 400 x g for 10 minutes at room temperature. After carefully removing the supernatant, 1 mL of an RPMI 1640 medium containing 10% FBS was added to the PBMC pellets, and the cells were counted. After adding an RPMI-1640 medium (Welgene, Korea) containing 10% FBS to 1x10^6 cells per mL, 100 ng/mL GM-CSF (Peprotech, USA) and 50 ng/mL IL-4 (Peprotech, USA) were mixed. After adding 500 µL of PMBC to each well of a 24-well plate, the cells were differentiated in an incubator at 37 °C maintained at 5% CO2 for 5 days.
It was confirmed whether the sCD38 functional domain that induces tolerance of dendritic cells is also effective in human dendritic cells. To identify the functional domain of human sCD38, the C-terminal portion of human CD38 (H18 (283-300), H13 (284-296) (SEQ ID NO: 2)) were prepared into peptides. Human sCD38 and M19 peptides were treated as positive controls, and TNF-α secretion was observed using H18 and H13 peptides as one of the indicators of the degree of DC tolerance induction.
It was confirmed that the TNF-α secretion induced by LPS from human dendritic cells was reduced by the sCD38 functional domain peptides when the human sCD38 and M19 peptides were treated as positive controls and they were treated with the H18 and H13 peptides.

[3] = tested on: autoimmune uveitis animal model; experiment: Animal model of autoimmune uveitis (IRBP/PTX-induced), severity; assay type: in vivo, C57BL/6 mice; settings: injected into the eye twice a week, versus uninjected uveitis control; FIG. 4
Protocol: Autoimmune uveitis was induced by […] retinoid-binding protein (IRBP) (Peptron, Korea) into the hind limb muscles of C57BL/6 mice (Damool Science, Korea) and intraperitoneal injection of pertussis toxin (PTX) (List Lab, USA). After 10 to 14 days, the presence or absence of autoimmune uveitis was confirmed in the eyes of the mice. The functional domain of sCD38 (226-304) was injected into the eye of the animal model that developed autoimmune uveitis twice a week to determine the progression of autoimmune uveitis. An autoimmune uveitis animal model to which the functional domain of sCD38 (226-304) was not injected was used as a control group, and animals to which the functional domain of sCD38 (226-304) was injected were used as a test group. The severity of autoimmune uveitis was measured for the experimental animals.

[4] = tested on: animal model of rheumatoid arthritis; experiment: Collagen-induced arthritis (CIA) animal model of rheumatoid arthritis, hind ankle thickness; assay type: in vivo, DBA/1 mice; settings: summary statement referring to Example 8
Protocol: For induction of collagen-induced arthritis (CIA), 8-9 week-old male DBA/1 mice (Central Lab. Animal, Korea) were immunized with bovine type II collagen (CII) (Central Lab. Animal, Korea). CII was dissolved in 0.05 N acetic acid at a concentration of 2 mg/mL and emulsified at a ratio of 1:1 with complete Freund's adjuvant (CFA) (Central Lab. Animal, Korea) at 4 °C. For the first immunization, 150 µL of a mixture of 100 µg CII and 100 µg CFA was injected intradermally into the tail of the mice. Three weeks later, before booster injection, the sCD38 functional domain (sCD38-3) (226-304) or saline was injected into the ankle joint of the mice, and an equal volume of CII, emulsified at a ratio of 1:1 with incomplete Freund's adjuvant (IFA) (Merck, Germany), was injected into the tail (booster injection). The sCD38 functional domain (sCD38-3) was injected three more times, once a week. After 4 weeks of the booster injection, the mice were euthanized for analysis. After the booster injection, the thickness of the hind ankle of the animal model was measured using a vernier caliper.

[5] = tested on: ulcerative colitis animal model; experiment: DSS-induced animal model of ulcerative colitis, colon length; assay type: in vivo, C57BL/6 mice; settings: for colon length: 20 µg intrarectally daily for 2 weeks, DSS 6-7 days, FIG. 8
Protocol: A control ulcerative colitis animal model was established by allowing C57BL/6 mice (Damool Science, Korea) to drink drinking water containing 2-3% dextran sulfate sodium (DSS) (MP Biomedicals, China) for 6-7 days. Administration of DSS increases the level of inflammatory cytokines and causes colitis in mice. The experimental animal model was treated with DSS for 6-7 days, and 20 µg of the sCD38 functional domain (M19 peptide (Peptron, Korea)) was injected intrarectally daily for 2 weeks. Then, it was determined whether the progression of ulcerative colitis was reduced. LiCl (Merck, Germany) was used instead of the sCD38 functional domain (M19 peptide) for a positive control group.
In contrast, it was confirmed that the colon length of the experimental animal model treated with the sCD38 functional domain (M19 peptide) was not shortened.

Sequence	TNF-α secretion from dendritic cells induced by LPS [1]	TNF-α secretion induced by LPS from human dendritic cells [2]	also measured
KFLQCVKNPEDSSCTSEI (REGION 1..18: note = 18 mer (Human or Chimpaanze)) [H18, domain peptide 283-300 of human CD38]	reduced	reduces	
RFLQCVKNPEHPSCRL (REGION 1..16: note = 16 mer (Mouse)) [M16, synthesized peptide 287-302 of mouse sCD38]	reduces		
LKMIVQKRNMIFACVDNYRPARFLQCVKNPEHPSCRLNT (REGION 1..39: note = 39 mer (Mouse)) [peptide 4, synthesized peptide 266-304 of mouse sCD38]	reduced		progression of autoimmune uveitis [3]: reduces; rheumatoid arthritis [4]: reduces
RFLQCVKNPEHPSC (REGION 1..14: note = 14 mer (Mouse, Rat or Horse)) [M14, synthesized peptide 287-300 of mouse sCD38]	reduces		
FLQCVKNPEDSSC (REGION 1..13: note = 13 mer (Human or Chimpaanze)) [H13, peptide 284-296 of human CD38]		reduces	
ARFLQCVKNPEHPSCRLNT (REGION 1..19: note = 19 mer (Mouse)) [M19, synthesized peptide 286-304 of mouse sCD38]	reduced	reduced	colon length [5]: prevents shortening of the colon; colon length ([5]; listed as M19 peptide): not shortened; progression of ulcerative colitis ([5]; summary statement referring to Example 9): reduces
